Patent publication US11713447B2, “Production of megakaryoctye compositions and therapies for treatment of thrombocytopenia” (Icahn School of Medicine at Mount Sinai, priority 2016, dated 2023)

Assays:
[1] = system: Cord blood (CB) CD34+ cells; experiment: TPO-mediated MK differentiation after VPA expansion of CB CD34+ cells; format: cell-based
Procedure: For this, 50,000 cryopreserved CB CD34+ cells were plated in serum-free (SF) media supplemented with stem cell factor (SCF), interleukin-3 (IL-3), Fms-like tyrosine kinase 3 (FLT-3), and TPO and allowed to expand with or without VPA (testing vs. control), as described in Example 1 above. After 7 days, instead of collecting, the cells were washed to remove VPA and cytokines, and re-plated in SF medium supplemented only with TPO. Approximately 50% more CD41+ MKs were detected in the VPA-expanded cultures than in cultures expanded with only cytokines (FIG. 3A). This corresponded to a final yield of ˜40 MKs generated from 1 CD34+ cell plated in the presence of VPA compared to […] CD41+ MKs generated by 1 CD34+ cell plated in the absence of VPA. q-PCR analyses confirmed upregulation of MK-specific genes (GATA1, PF4, and NFE2) in the cultures exposed to VPA before MK differentiation (FIG. 3B).

[2] = system: Cord blood (CB) CD34+ cells; experiment: Ex vivo expansion of CB CD34+ cells in serum-free culture with valproic acid; format: cell-based
Procedure: Cord blood (CB) CD34+ cells were obtained and separated into a testing group and a control group. The groups were subjected to the following cell culture protocol:
The CB CD34+ cells were primed with a cytokine cocktail and plated in serum-free (SF) culture. The cytokine cocktail included stem cell factor (SCF) at an amount of 150 ng/mL, interleukin-3 (IL-3) at an amount of 50 ng/mL, Fms-like tyrosine kinase 3 (FLT-3) at an amount of 100 ng/mL, and thrombopoietin (TPO) at an amount of 100 ng/mL.
1 mM valproic acid (VPA) was added to the SF culture (testing group only). No VPA was added to the control group.
The cells were allowed to expand in the SF culture and collected at Day 7. Total CD34+ cell expansion was around 200-fold.

CCCC(CCC)C(=O)O [VPA, valproic acid]
more CD41+ MKs in VPA-expanded cultures than in cultures expanded with only cytokines ([1]; 7 days expansion with VPA, then SF medium with TPO only): Approximately 50% | q-PCR expression of MK-specific genes (GATA1, PF4, and NFE2) ([1]; cultures exposed to VPA before MK differentiation): upregulation | final yield of MKs generated from 1 CD34+ cell plated ([1]; plated in the presence of VPA): 40 MKs generated from 1 CD34+ cell | number of CD34+ cells in VPA-treated cultures relative to cells expanded in the absence of VPA ([2]; 1 mM VPA added day 1, SF culture with SCF, IL-3, FLT-3, TPO): > 200 fold | Total CD34+ cell expansion ([2]; 1 mM VPA, SF culture, collected at Day 7): around 200 fold | CD41+ MK cells in expanded HSCs ([2]; VPA-treated SF culture): 8.9±2% | glycophorin (GPA)+ erythroid cells in expanded HSCs ([2]; VPA-treated SF culture): 17±5.4% | primitive CD34+/CD90+ cells in expanded HSCs ([2]; VPA-treated SF culture): 74.2±9.8%
